{"source": "a melting point compilation (Tetko et al.; mined from patent text by program, amines drawn as free bases though some values may be those of a salt)", "note": "Residues, ends and D or L forms follow the SMILES beside them. *: point of attachment. Cbz = O=C(OCc1ccccc1)*; Boc = CC(C)(C)OC(=O)*"}
{"units": {"melting point": "°C"}}
{"molecule": "CCOC(=O)C(CC)Cc1ccc(N2C(=O)c3ccccc3C2=O)cc1", "note": "(stereo unspecified)", "melting point": "86 to 87"}
{"molecule": "O=c1[nH]c(CCCOc2cccc(CN3CCCCC3)c2)ncc1Cc1ccnc(O)c1", "melting point": "167 to 169"}
{"molecule": "c1cncc(-c2ccc3nncn3c2)c1", "melting point": "200 to 202"}
{"molecule": "COc1cc2ncc(C#N)c(Nc3ccc(F)c(Cl)c3)c2cc1NC(=O)C=CCN(C)OC", "melting point": "210 to 217"}
{"molecule": "O=C(CSc1ccccc1)c1ccc2[nH]c3ncc(Cl)cc3c2c1", "melting point": "238 to 239"}
{"molecule": "COc1cc(Nc2c(C#N)cnc3cc4cc(OCCN5CCOCC5)c(OC)cc4cc23)c(Cl)cc1F", "melting point": "206 to 222"}
{"molecule": "CCN(CC)c1ccccc1C(=O)O", "melting point": "122 to 123"}
{"molecule": "COCCOc1ccc(CCCNS(=O)(=O)c2ccccc2[N+](=O)[O-])c(Oc2ncc(C(F)(F)F)cc2Cl)c1", "melting point": 126}
{"molecule": "O=C(O)c1cccc(Oc2ncccc2C(=O)NCc2ccccc2)c1", "melting point": "157 to 158"}
{"molecule": "COc1ncccc1C(=O)NCCc1ccncc1", "melting point": "84 to 87"}
{"molecule": "CCOC(=O)C=Cc1ccc(OCC)c([N+](=O)[O-])c1", "melting point": "90 to 92"}
{"molecule": "CN(c1ccc(Cl)c2cc(C(N)=O)[nH]c12)S(=O)(=O)c1cccs1", "melting point": "252 to 254"}
{"molecule": "O=C1N(Cc2ccccn2)c2cccnc2C12COc1cc3c(cc12)OCCO3", "note": "(stereo unspecified)", "melting point": "146 to 147"}
{"molecule": "CCCS(=O)c1c2ccccc2nc2c1c(C)nn2-c1ccccn1", "note": "(stereo unspecified)", "melting point": "125 to 127"}
{"molecule": "COc1ccc(/C(C)=C/c2ccc(CO)cc2)cc1C(C)(C)C", "melting point": "88 to 90"}
{"molecule": "Cc1cc2c(cc1N1CCCC1)OC(=O)C2C", "note": "(stereo unspecified)", "melting point": "67 to 69"}
{"molecule": "CC(NC(=O)Cc1cc(F)cc(F)c1)C(=O)C1(N)N=C(c2ccccc2)c2cc(Cl)ccc2N(C)C1=O", "note": "(stereo unspecified)", "melting point": "126 to 130"}
{"molecule": "CN(C)C1CCN(c2nc(N3CCc4ccccc4C3)c3ncnc(N4CCOCC4)c3n2)CC1", "melting point": "49 to 53"}
{"molecule": "C=CCN(c1ccccc1CC(=O)O)c1c(Cl)cccc1Cl", "melting point": 148}
{"molecule": "O=c1c2c(Cl)cc(Cl)cc2n(Cc2ccccc2)c(=O)n1Cc1cccc(Br)c1", "melting point": "121 to 128"}
{"molecule": "O=[N+]([O-])c1ccc(Sc2cc(Cl)cc(Cl)c2)c(S(=O)(=O)NC2CN3CCC2CC3)c1", "note": "(stereo unspecified)", "melting point": 256}
{"molecule": "O=C(NCc1ccccc1F)[C@@H]1CCCN(c2cccc3c2C(=O)N(Cc2ccncc2)C3=O)C1", "melting point": "196 to 197"}
{"molecule": "CCC1=C([N+](=O)[O-])C(c2cccc(Cl)c2Cl)c2c[nH]nc2N1", "note": "(stereo unspecified)", "melting point": 250}
{"molecule": "COC(=O)c1ccc(OCC(=O)NN=C2C(=O)Nc3ccc(I)cc32)cc1", "melting point": 288}
{"molecule": "Nc1cccc2c1CCCCC2", "melting point": "107 to 111"}
{"molecule": "Cc1cccc(COc2cccc(OCc3ccc4cc(F)ccc4n3)c2)c1OCC(=O)O", "melting point": "160 to 161"}
{"molecule": "CC(C)(C)c1ccc(Cn2c(=S)n(Cc3ccc(NS(C)(=O)=O)cc3)c3ccccc32)cc1", "melting point": "176 to 178"}
{"molecule": "NCCNCCNc1ccc2c3c(nn2CCO)-c2c(O)ccc(O)c2C(=O)c13", "melting point": "185 to 190"}
{"molecule": "CSc1ncnc2c(N(C)C)nc(Cl)nc12", "melting point": "166 to 168"}
{"molecule": "COc1ccc(-c2ccccn2)c(NC(=O)CC(C)N)c1", "note": "(stereo unspecified)", "melting point": "185 to 188"}
{"molecule": "CNC(=O)c1cc(-c2ccc(OC)c(Cl)c2)nn(CC(C)C)c1=O", "melting point": "182 to 184"}
{"molecule": "CCCOc1ccc(CNc2cc(C(=O)Nc3ccccc3)ccc2OC)cc1", "melting point": "154 to 156"}
{"molecule": "CC(=O)NC1Cc2ccc([N+](=O)[O-])cc2C1", "note": "(stereo unspecified)", "melting point": "143 to 144"}
{"molecule": "Cc1[nH]c(=O)ccc1C#N", "melting point": "> 300"}
{"molecule": "O=C(O)Cc1ccc(Cc2n[nH]c3c2c(=O)n(-c2ccccc2)c2ncccc32)cc1", "melting point": "297 to 300"}
{"molecule": "COc1ccc(/C=C/c2ccc3c(=O)n(-c4ccccc4)ncc3c2)cc1", "melting point": "198 to 199"}
{"molecule": "Fc1ccc(-c2cnn(CCC#Cc3ccccn3)n2)cc1", "melting point": "83.5 to 84.5"}
{"molecule": "CCNC(=S)NS(=O)(=O)c1cc2c(cc1OC)OCC(NC(=O)c1cc(Cl)ccc1OC)C2", "note": "(stereo unspecified)", "melting point": "194 to 195"}
{"molecule": "O=C1CN(C(=O)CN2CC(c3ccc(F)cc3)CC2=O)CCN1", "note": "(stereo unspecified)", "melting point": "200 to 203"}
{"molecule": "CC(=O)N1CCN(NC(=O)c2cccs2)CC1", "melting point": "212 to 213"}
{"molecule": "OC(c1ccccc1)C1CCN1C(c1ccccc1)c1ccccc1", "note": "(stereo unspecified)", "melting point": "87.5 to 88.5"}
{"molecule": "O=C(O)CCc1ccc(C(=O)CCl)cc1", "melting point": "151 to 153"}
{"molecule": "Cn1cc(-c2cc3cccnc3[nH]2)c2cc(OC3(C(=O)O)CCC3)ccc21", "melting point": "168 to 169"}
{"molecule": "CCOC(=O)CCc1cccc(N(C)C)c1", "melting point": "94 to 98"}
{"molecule": "COc1cc(C)c(Br)cc1C", "melting point": 38.4}
{"molecule": "CCCS(=O)(=O)c1ccc2c(c1)C1(O)C(C2)SC(=NCC)N1CC", "note": "(stereo unspecified)", "melting point": 136}
{"molecule": "COc1ccc2c(c1)C1(CCNC1)CC2O", "note": "(stereo unspecified)", "melting point": "135 to 138"}
{"molecule": "COC(=O)ON(C(N)=O)C(C)c1cc2ccccc2s1", "note": "(stereo unspecified)", "melting point": "124 to 125"}
{"molecule": "COC(=N)c1ccc(-c2ccc([N+](=O)[O-])cc2)o1", "melting point": "184 to 188"}
{"molecule": "CC(C)CC(NC(=O)OCc1ccccc1)C(=O)NC(CCCCNC(=O)OC(C)(C)C)C(=O)O", "note": "(stereo not drawn) (Cbz-Leu-Lys(Boc)-OH; configuration not given here)", "melting point": "125 to 128"}
{"molecule": "Nc1ccc(C(=O)c2ccncc2)cc1N", "melting point": "210 to 214"}
{"molecule": "Cc1ccc(S(=O)(=O)N(c2ccc(Cl)cc2C(N)=O)C(C)C)cc1", "melting point": "177 to 178"}
{"molecule": "CC1=C(C(=O)OCCN2C(=O)c3ccccc3C2=O)C(c2cccc([N+](=O)[O-])c2)C(C(=O)OCCN2C(=O)c3ccccc3C2=O)=C(C)N1", "melting point": "92 to 94"}
{"molecule": "Cc1ccc(Cl)c(Nc2ccccc2-c2nnco2)c1Cl", "melting point": "180 to 181"}
{"molecule": "O=C1Cc2cccc(-c3ccccc3)c2N1", "melting point": "167 to 169"}
{"molecule": "CCOC(=O)C(=O)N1CCCc2c1ccc1[nH]c(=O)c(=O)[nH]c21", "melting point": "> 285"}
{"molecule": "O=c1[nH]c2ncc(-c3ccc(-c4cc[nH]n4)cc3)nc2n1CC1CCCCC1", "melting point": "292 to 294"}
{"molecule": "COc1nc(NC(=O)NS(=O)(=O)c2csc3ccccc23)nc(OC)n1", "melting point": 152}
{"molecule": "CC(C)(C)[C@H]1CC[C@@H](Nc2nnc(Cc3ccncc3)c3ccccc23)CC1", "melting point": "64 to 65"}
{"molecule": "C=CCSc1nnc(OC)c2ccccc12", "melting point": "32 to 34"}
{"molecule": "CC(C)NC(=O)N1CC(Oc2ccc(C(F)(F)F)cc2)C1", "melting point": "151 to 152"}
{"molecule": "CCn1cc(CN(C(=O)C2CCCc3cc(OCc4ccccc4)ccc32)c2ccc(C(C)C)cc2)cn1", "note": "(stereo unspecified)", "melting point": "122 to 124"}
{"molecule": "CCC(C=O)c1ccc(S(=O)(=O)NC)cc1", "note": "(stereo unspecified)", "melting point": "202 to 204"}
{"molecule": "COc1cc(C=O)cc(Cl)c1OCCBr", "melting point": "52 to 54"}
{"molecule": "O=C(COc1ccccc1)N[C@H]1C(=O)N[C@H]1C(=O)O", "note": "(relative stereo)", "melting point": "150 to 151"}
{"molecule": "Cc1cc(C=Cc2ccccc2OCC(O)CNC(C)(C)C)on1", "note": "(stereo unspecified)", "melting point": "83 to 85"}
{"molecule": "CC(C)c1ccc(-c2nsc(-c3cccc(C(=O)O)c3)n2)cc1", "melting point": "166 to 168"}
{"molecule": "CCCc1cn(CCO)nc1OCc1ccc2ccccc2n1", "melting point": "61 to 62"}
{"molecule": "CCn1ncc(C(=O)c2ccc(S(C)(=O)=O)c(CO)c2Cl)c1O", "melting point": "70 to 76"}
{"molecule": "CC(C)(C)n1nnc(NC(=O)C2c3ccccc3Oc3ccccc32)n1", "melting point": "230 to 231"}
{"molecule": "N#CCC(=O)Nc1c([N+](=O)[O-])cnn1-c1c(Cl)cc(C(F)(F)F)cc1Cl", "melting point": "221 to 223"}
{"molecule": "N#CCCNNC(=S)c1ccc(OCc2ccccc2)cc1", "melting point": 135}
{"molecule": "O=C(O)c1ccccc1-c1nc2ccccc2o1", "melting point": "> 250"}
{"molecule": "COc1ccc(Cl)cc1C(=O)NCCc1ccc(-c2ccc(OC(C)(C)CO)cc2)cc1", "melting point": 115}
{"molecule": "Cn1c(N)cc(=O)n1-c1ccccc1", "melting point": "205 to 215"}
{"molecule": "CCCCCCCCCCCCCCC1CC(=O)N(NC(=O)CCc2cc(C(C)(C)C)c(O)c(C(C)(C)C)c2)C1=O", "note": "(stereo unspecified)", "melting point": "70 to 77"}
{"molecule": "COc1ccc(C=CC(=O)c2c(OC)cc(OC)cc2OC(=O)c2ccco2)cc1", "melting point": 127}
{"molecule": "CC(C(=O)O)c1ccc2c(c1)Cc1ccccc1-2", "note": "(stereo unspecified)", "melting point": "180 to 182"}
{"molecule": "CN1CCN(C(=O)[C@H](CCC(N)=O)NC(=O)CCc2ccc(OCc3ccccc3)cc2OCc2ccccc2)CC1", "melting point": "120 to 122"}
{"molecule": "COc1cc(CC(=O)O)ccc1OCCNC(=O)C1Cc2ccccc2N1S(=O)(=O)c1ccc(-c2cc(C(F)(F)F)ccc2Cl)cc1", "note": "(stereo unspecified)", "melting point": "74 to 76"}
{"molecule": "CC(C)N(C)c1cc2c(cc1Cl)NC(=O)CC(c1cccc(-n3nncc3CO)c1)=N2", "melting point": 207}
{"molecule": "COc1cccc(C23CCN(C(=O)c4ccccc4)CC2CCC(=O)C3)c1", "note": "(stereo unspecified)", "melting point": 78}
{"molecule": "Cc1ccc(-c2c(CNC(=O)OC(C)(C)C)n(CC(C)C)c(=O)c3ccc(C(=O)O)cc23)cc1", "melting point": "230 to 231"}
{"molecule": "CC(C)Nn1c(CO)nc2c(N)nc3ccccc3c21", "melting point": "228 to 229"}
{"molecule": "COc1ccc(Cl)cc1CNc1nc(Cl)nc2c1ncn2[C@@H]1SC[C@@H](O)[C@H]1O", "melting point": "189 to 190"}
{"molecule": "NCCCCOc1ccc2c(c1)NC(=O)C(CC(=O)O)C2", "note": "(stereo unspecified)", "melting point": "229 to 230"}
{"molecule": "Cn1nc(-c2ccc(C(=O)O)cc2)nc1-c1ccccc1", "melting point": "243 to 244"}
{"molecule": "CCc1ncnc(NC2CCc3cc(O)ccc3C2)c1Cl", "note": "(stereo unspecified)", "melting point": 178}
{"molecule": "N#Cc1ccccc1N1CCN(CCCCCC(=O)O)CC1", "melting point": 120}
{"molecule": "C[Si](C)(C)c1cc(-c2ccc(F)cc2)c(-c2ccc(F)cc2)o1", "melting point": "82 to 83"}
{"molecule": "CSC1=C(c2cccc3sccc23)N2CCN=C2S1", "melting point": "104 to 107"}
{"molecule": "COc1ccc(C(=O)NC(C)(C#N)c2ccccn2)cc1", "note": "(stereo unspecified)", "melting point": 173}
{"molecule": "Cc1nc2scc(C)n2c(=O)c1CCN1CCC(c2c[nH]c3ccccc23)CC1", "melting point": 275}
{"molecule": "CCC1(O)CSC(=S)N1c1cccc(C)n1", "note": "(stereo unspecified)", "melting point": 118}
{"molecule": "COc1nccc(-c2c(-c3ccc(F)cc3)ncn2C2CCC(O)(CO)CC2)n1", "note": "(stereo unspecified)", "melting point": "225 to 226"}
{"molecule": "CCOCc1nc2c(N)nc3ccc(CCc4ccccc4)cc3c2n1CC(C)(C)O", "melting point": "175 to 176"}
{"molecule": "O=C(Cc1ccc(Cl)c(Cl)c1)N1CCCC2CCCC(N3CCCC3)C21", "note": "(stereo unspecified)", "melting point": "82 to 84"}
{"molecule": "CCC1=NCC(c2cccc(O)c2)O1", "note": "(stereo unspecified)", "melting point": "< 84"}
{"molecule": "Nc1nc2ccc(OS(=O)(=O)c3ccc(F)cc3)cc2[nH]1", "melting point": 192}
{"molecule": "Cc1nc(-c2c(F)cccc2Cl)nn1-c1ccc(CO)cc1", "melting point": "120 to 122"}
{"molecule": "O=C1OC(=O)C(F)=C1F", "melting point": "170 to 173"}
